Patent US9914730B2, “Azaquinazoline inhibitors of Atypical protein Kinase C” (Ignyta, Inc., priority 2012, dated 2018)

Biological target: T1, full-length human PKCι (Homo sapiens, UniProt P41743)
T1 construct: Recombinant, full-length human PKCι expressed in Sf21 insect cells is also commercially available; purchased; host or cells: Sf21 insect cells
T1 sequence (P41743 1-596): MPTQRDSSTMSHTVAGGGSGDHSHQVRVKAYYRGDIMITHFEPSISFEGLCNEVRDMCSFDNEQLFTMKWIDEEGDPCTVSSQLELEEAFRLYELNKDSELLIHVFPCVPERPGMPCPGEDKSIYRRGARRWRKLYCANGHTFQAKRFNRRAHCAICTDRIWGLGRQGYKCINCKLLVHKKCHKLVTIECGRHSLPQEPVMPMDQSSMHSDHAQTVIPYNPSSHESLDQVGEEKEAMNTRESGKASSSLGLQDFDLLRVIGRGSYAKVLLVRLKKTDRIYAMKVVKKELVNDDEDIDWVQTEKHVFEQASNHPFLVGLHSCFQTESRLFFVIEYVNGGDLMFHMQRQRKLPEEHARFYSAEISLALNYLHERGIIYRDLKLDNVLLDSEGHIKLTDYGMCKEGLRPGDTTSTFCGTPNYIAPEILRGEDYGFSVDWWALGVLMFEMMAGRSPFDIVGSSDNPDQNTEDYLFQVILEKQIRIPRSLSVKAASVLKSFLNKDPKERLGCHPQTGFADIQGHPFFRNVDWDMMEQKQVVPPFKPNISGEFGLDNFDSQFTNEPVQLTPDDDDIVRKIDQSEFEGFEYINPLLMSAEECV
Test: PKCι IC50 IMAP assay, full-length PKCι at 150 μM ATP
Format: biochemical
Settings: read-out: IC50 in IMAP assay against full length PKCi at 150 μM ATP
Procedure, shortened: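 Recombinant full-length human PKCι (Sf21-expressed, typically 15 pM) phosphorylated 100 nM 5FAM-labelled PKCε pseudosubstrate-derived peptide with 150 μM ATP (5× KM^APP) in 18 mM tris-HCl pH7.5, 9 mM MgCl2, EGTA, DTT, 4% DMSO. After 60 min at room temperature, IMAP binding reagent was added for 2 h and fluorescence polarisation read.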

`Fc1cccc(F)c1Nc1cc(-c2nc(N3CCNCC3)c3c(C4CCC4)cncc3n2)ccn1` [Example 620, [4-(5-Cyclobutyl-4-piperazin-1-yl-pyrido[3,4-d]pyrimidin-2-yl)-pyridin-2-yl]-(2,6-difluoro-phenyl)-amine] and `Fc1ccc(F)c(Nc2cc(-c3nc(N4CCNCC4)c4c(C5CC5)cncc4n3)ccn2)c1Cl` [Example 635, (2-Chloro-3,6-difluoro-phenyl)-[4-(5-cyclopropyl-4-piperazin-1-yl-pyrido[3,4-d]pyrimidin-2-yl)-pyridin-2-yl]-amine] cannot be ordered by IC50: less than 100 nM for the first, less than 100 nM for the second.

`FC1(F)CCC(Nc2cc(-c3nc(N4CCNCC4)c4c(C5CC5)cncc4n3)ccn2)C1` (stereo not drawn) [Example 621, [4-(5-Cyclopropyl-4-piperazin-1-yl-pyrido[3,4-d]pyrimidin-2-yl)-pyridin-2-yl]-(3,3-difluoro-cyclopentyl)-amine] and `OC1CCC(Nc2cc(-c3nc(N4CCNCC4)c4c(C5CC5)cncc4n3)ccn2)CC1` (stereo not drawn) [Example 633, 4-[4-(5-Cyclopropyl-4-piperazin-1-yl-pyrido[3,4-d]pyrimidin-2-yl)-pyridin-2-ylamino]-cyclohexanol] cannot be ordered by IC50: less than 100 nM for the first, less than 100 nM for the second.

`CC(C)c1cccc(Nc2cc(-c3nc(N4CCNCC4)c4c(C5CC5)cncc4n3)ccn2)c1` [Example 622, [4-(5-Cyclopropyl-4-piperazin-1-yl-pyrido[3,4-d]pyrimidin-2-yl)-pyridin-2-yl]-(3-isopropyl-phenyl)-amine] and `CCc1cccc(Nc2cc(-c3nc(N4CCNCC4)c4c(C5CC5)cncc4n3)ccn2)c1` [Example 623, [4-(5-Cyclopropyl-4-piperazin-1-yl-pyrido[3,4-d]pyrimidin-2-yl)-pyridin-2-yl]-(3-ethyl-phenyl)-amine] cannot be ordered by IC50: less than 100 nM for the first, less than 100 nM for the second.

Compared with `FC(F)(F)C1CN(c2nc(-c3ccnc(Cl)c3)nc3cncc(C4CC4)c23)CCN1` (stereo not drawn) [Example 624, 2-(2-Chloro-pyridin-4-yl)-5-cyclopropyl-4-(3-trifluoromethyl-piperazin-1-yl)-pyrido[3,4-d]pyrimidine], `CC(=O)Nc1cc(-c2nc(N3CCNC(CC(F)(F)F)C3)c3c(C4CC4)cncc3n2)ccn1` (stereo not drawn) [Example 626, N-(4-{5-Cyclopropyl-4-[3-(2,2,2-trifluoro-ethyl)-piperazin-1-yl]-pyrido[3,4-d]pyrimidin-2-yl}-pyridin-2-yl)-acetamide] is lower in IC50: 100 to 1000 nM for the first, less than 100 nM for the second.

First: CCN1CCP(=O)(c2ccc(Nc3cc(-c4nc(N5CCNCC5)c5c(C6CC6)cncc5n4)ccn3)c(OC)c2)CC1 [Example 625, [4-(5-Cyclopropyl-4-piperazin-1-yl-pyrido[3,4-d]pyrimidin-2-yl)-pyridin-2-yl]-[4-(1-ethyl-4-oxo-4λ^5-[1,4]azaphos-phinan-4-yl)-2-methoxy-phenyl]-amine]
Second: COc1cc(Nc2cc(-c3nc(N4CCNCC4)c4c(C5CC5)cncc4n3)ccn2)ccc1C1CC1 [Example 637, (4-Cyclopropyl-3-methoxy-phenyl)-[4-(5-cyclopropyl-4-piperazin-1-yl-pyrido[3,4-d]pyrimidin-2-yl)-pyridin-2-yl]-amine]
The IC50 of the first is higher: 100 to 1000 nM for the first, less than 100 nM for the second.

`COc1cc(Nc2cc(-c3nc(N4CCNCC4)c4c(C5CC5)cncc4n3)ccn2)ccc1F` [Example 627, [4-(5-Cyclopropyl-4-piperazin-1-yl-pyrido[3,4-d]pyrimidin-2-yl)-pyridin-2-yl]-(4-fluoro-3-methoxy-phenyl)-amine] and `COc1ccc(F)c(Nc2cc(-c3nc(N4CCNCC4)c4c(C5CC5)cncc4n3)ccn2)c1Cl` [Example 634, (2-Chloro-6-fluoro-3-methoxy-phenyl)-[4-(5-cyclopropyl-4-piperazin-1-yl-pyrido[3,4-d]pyrimidin-2-yl)-pyridin-2-yl]-amine] cannot be ordered by IC50: less than 100 nM for the first, less than 100 nM for the second.

`COc1cc(Nc2cc(-c3nc(N4CCNCC4)c4c(C5CC5)cncc4n3)ccn2)c(F)cc1F` [Example 628, [4-(5-Cyclopropyl-4-piperazin-1-yl-pyrido[3,4-d]pyrimidin-2-yl)-pyridin-2-yl]-(2,4-difluoro-5-methoxy-phenyl)-amine] and `Fc1ccc(Nc2cc(-c3nc(N4CCNCC4)c4c(C5CC5)cncc4n3)ccn2)c(F)c1` [Example 651, [4-(5-Cyclopropyl-4-piperazin-1-yl-pyrido[3,4-d]pyrimidin-2-yl)-pyridin-2-yl]-(2,4-difluoro-phenyl)-amine] cannot be ordered by IC50: less than 100 nM for the first, less than 100 nM for the second.

`c1cc(-c2nc(N3CCNCC3)c3c(C4CC4)cncc3n2)cc(NCC2CC2)n1` [Example 629, Cyclopropyl-methyl-[4-(5-cyclopropyl - 4-piperazin-1-yl-pyrido[3,4-d]pyrimidin-2-yl)-pyridin-2-yl]-amine] and `CNc1cc(-c2nc(N3CCNCC3)c3c(C4CC4)cncc3n2)ccn1` [Example 630, [4-(5-Cyclopropyl-4-piperazin-1-yl-pyrido[3,4-d]pyrimidin-2-yl)-pyridin-2-yl]-methyl-amine] cannot be ordered by IC50: less than 100 nM for the first, less than 100 nM for the second.

First: N#Cc1ccc(Nc2cc(-c3nc(N4CCNCC4)c4c(C5CC5)cncc4n3)ccn2)cc1F [Example 631, 4-[4-(5-Cyclopropyl-4-piperazin-1-yl-pyrido[3,4-d]pyrimidin-2-yl)-pyridin-2-ylamino]-2-fluoro-benzonitrile]
Second: N#Cc1ccc(Nc2cc(-c3nc(N4CCNCC4)c4c(C5CC5)cncc4n3)ccn2)cc1 [Example 645, 4-[4-(5 Cyclopropyl-4-piperazin-1-yl-pyrido[3,4-d]pyrimidin-2-yl)-pyridin-2-ylamino]-benzonitrile]
The IC50 of the first is higher: 100 to 1000 nM for the first, less than 100 nM for the second.

First: c1ccc(Nc2cc(-c3nc(N4CCCNCC4)c4c(C5CC5)cncc4n3)ccn2)cc1 [Example 632, [4-(5-Cyclopropyl-4-[1,4]diazepan-1-yl-pyrido[3,4-d]pyrimidin-2-yl)-pyridin-2-yl]-phenyl-amine]
Second: NC(=O)N1CCN(c2nc(-c3ccnc(Nc4ccccc4)c3)nc3cncc(C4CC4)c23)CC1 [Example 638, 4-[5-Cyclopropyl-2-(2-phenylamino-pyridin-4-yl)-pyrido[3,4-d]pyrimidin-4-yl]-piperazine-1-carboxylic acidamide]
The IC50 of the first is lower: less than 100 nM for the first, 100 to 1000 nM for the second. The first is the more potent here.

Compared with `[2H]C1([2H])NC([2H])([2H])C([2H])([2H])N(c2nc(-c3ccnc(Nc4ccccc4)c3)nc3cncc(C4CC4)c23)C1([2H])[2H]` [Example 636, {4-[5-Cyclopropyl-4-(2,2,3,3,5,5,6,6-octadeuterio-piperazin-1-yl)-pyrido[3,4-d]pyrimidin-2-yl]-pyridin-2-yl}-phenyl-amine], `FC(F)(F)CC1CN(c2nc(-c3ccnc(Nc4ccccc4)c3)nc3cncc(C4CC4)c23)CCN1` (stereo not drawn) [Example 643, [4-{5-Cyclopropyl-4-[3-(2,2,2-trifluoro-ethyl)-piperazin-1-yl]-pyrido[3,4-d]pyrimidin-2-yl}-pyridin-2-yl)-phenyl-amine] is higher in IC50: less than 100 nM for the first, 1000 to 10000 nM for the second. The first is the more potent here.

`O=C(Cc1c(F)cccc1F)Nc1cc(-c2nc(N3CCNCC3)c3c(C4CC4)cncc3n2)ccn1` [Example 639, N-[4-(5-Cyclopropyl-4-piperazin-1-yl-pyrido[3,4-d]pyrimidin-2-yl)-pyridin-2-yl]-2-(2,6-difluoro-phenyl)-acetamide] and `C[C@@H](Nc1cc(-c2nc(N3CCNCC3)c3c(C4CC4)cncc3n2)ccn1)c1cccc(F)c1` [Example 644, [4-(5-Cyclopropyl-4-piperazin-1-yl-pyrido[3,4-d]pyrimidin-2-yl)-pyridin-2-yl]-[(R)-1-(3-fluoro-phenyl)-ethyl]-amine] cannot be ordered by IC50: less than 100 nM for the first, less than 100 nM for the second.

`CCCc1ccc(F)c(Nc2cc(-c3nc(N4CCNCC4)c4c(C5CC5)cncc4n3)ccn2)c1` [Example 640, [4-(5-Cyclopropyl-4-piperazin-1-yl-pyrido[3,4-d]pyrimidin-2-yl)-pyridin-2-yl]-(2-fluoro-5-propyl-phenyl)-amine] and `Fc1cc(C2CC2)ccc1Nc1cc(-c2nc(N3CCNCC3)c3c(C4CC4)cncc3n2)ccn1` [Example 641, (4-Cyclopropyl-2-fluoro-phenyl)-[4-(5-cyclopropyl-4-piperazin-1-yl-pyrido[3,4-d]pyrimidin-2-yl)-pyridin-2-yl]-amine] cannot be ordered by IC50: less than 100 nM for the first, less than 100 nM for the second.

First: Fc1cccc(F)c1Nc1cc(-c2nc(N3CCNC(CC(F)(F)F)C3)c3c(C4CC4)cncc3n2)ccn1 (stereo not drawn) [Example 642, (4-{5-Cyclopropyl-4-[3-(2,2,2-trifluoro-ethyl)-piperazin-1-yl]-pyrido[3,4-d]pyrimidin-2-yl}-pyridin-2-yl)-(2,6-difluoro-phenyl)-amine]
Second: Fc1cc(F)c(Nc2cc(-c3nc(N4CCNCC4)c4c(C5CC5)cncc4n3)ccn2)c(F)c1 [Example 650, [4-(5-Cyclopropyl-4-piperazin-1-yl-pyrido[3,4-d]pyrimidin-2-yl)-pyridin-2-yl]-(2,4,6-trifluoro-phenyl)-amine]
The IC50 of the first is higher: 100 to 1000 nM for the first, less than 100 nM for the second. The second is the more potent here.

`FC(F)(F)c1cccc(Nc2cc(-c3nc(N4CCNCC4)c4c(C5CC5)cncc4n3)ccn2)c1` [Example 646, [4-(5-Cyclopropyl-4-piperazin-1-yl-pyrido[3,4-d]pyrimidin-2-yl)-pyridin-2-yl]-(3-trifluoromethyl-phenyl)-amine] and `C[C@@H](Nc1cc(-c2nc(N3CCNCC3)c3c(C4CC4)cncc3n2)ccn1)c1ccc(F)cc1` [Example 652] cannot be ordered by IC50: less than 100 nM for the first, less than 100 nM for the second.
